12 compounds from US10428024B2, “Piperidinyl derivatives” (MERCK PATENT GMBH, priority 2016, dated 2019) can be followed below.

The target in the assay is PDHK2 (Homo sapiens (Human), UniProt Q15119). The assay can be described thus: Biochemical activity testing of PDHK2: PDC inactivation assay. The following applies: human rec PDHK2, 5 μM ATP, read-out: IC50 PDHK2 (enzyme assay). The source says:
Biochemical Activity Testing of PDHK2: PDC Inactivation Assay
The biochemical activity assay for PDHK2 is based on the inactivation of PDC through phosphorylation by PDHK2. The assay is run in two steps: the enzymatic PDHK2 reaction in which isolated PDC is phosphorylated by PDHK2 with ATP as co-substrate and the PDC activity assay in which pyruvate and NAD are converted to acetyl-CoA and NADH. The PDC activity correlates to the increase in NADH and thereby is detectable directly via the increasing fluorescence signal (Exc 340 nm, Em 450 nm). Inhibition of PDHK2 results in a lower phosphorylation status and thereby a less decrease in activity of PDC and a stronger increase in NADH fluorescence signal.
The PDC inactivation assay is performed in Greiner 384-well microtiter plates and is used for high throughput screen. 4 μl of PDHK2 (human, rec, Carna Bioscience, 10 ng/μl-137 nM final concentration) and PDC (isolated from porcine heart, Sigma-Aldrich, 20 mU/ml final concentration) are incubated in the absence or presence of the test compound (10 dilution concentrations) for 30 min at room temperature in kinase buffer (15 mM potassium phosphate buffer, pH 7.0, 60 mM KCl, 1.5 mM DTT, 2.5 mM MgCl2, 0.0125% (w/v) BSA, 0.125% Pluronic F-68). The kinase reaction is started by the addition of 4 μl ATP substrate solution (fc 5 μM in kinase buffer). After 30 min incubation at 37° C. 40 μl of PDC reaction solution (100 mM Tris/HCl, pH 7.8, 0.5 mM EDTA, 1 mM MgCl2, 50 mM NaF, 0.25 mM Coenzyme A, 5 mM pyruvate, 1 mM NAD, 5 mM DTT, 1 mM thiamine pyrophosphate) is added. The first fluorescence measurement is performed on a Perkin Elmer Envision (Exc 340 nm, Em 450 nm). The reaction is incubated for 45 min at room temperature. Afterwards a second fluorescence measurement is performed and the PDC activity is calculated by the difference between both measurements. As full value for the PDHK2 assay the inhibitor-free PDHK2 reaction is used. The pharmacological zero value used is DCA (Sigma-Aldrich) in a final concentration of 3 mM. The inhibitory values (IC50) were determined using either the program Symyx Assay Explorer® or Condosseo® from GeneData.
Regarding `Cc1ccc(N(C)C(=O)[C@@H]2CCN(C(=O)[C@@](C)(O)C(F)(F)F)C[C@@H]2C)cc1` [Compound A8, (3R,4R)—N,3-Dimethyl-N-(4-methylphenyl)-1-[(2R)-3,3,3-trifluoro-2-hydroxy-2-methylpropanoyl]piperidine-4-carboxamide], the IC50 (as a rule, the concentration needed to halve the response being measured) was 5.1 µM.
The figure for `C[C@H]1CN(C(=O)[C@@](C)(O)C(F)(F)F)CC[C@H]1C(=O)N(C)c1ccc(Cl)cc1` [Compound A11, (3R,4R)—N-(4-chlorophenyl)-N,3-dimethyl-1-[(2R)-3,3,3-trifluoro-2-hydroxy-2-methylpropanoyl]piperidine-4-carboxamide] is 3.8 µM; for `CC1CN(C(=O)[C@@](C)(O)C(F)(F)F)CCC1C(=O)N(C)c1ccc(C(F)(F)F)cc1Cl` (stereo partly drawn) [Compound A15, N-[2-chloro-4-(trifluoromethyl)phenyl]-N,3-dimethyl-1-[(2R)-3,3,3-trifluoro-2-hydroxy-2-methylpropanoyl]piperidine-4-carboxamide] it is 1.7 µM; for `C[C@H]1CN(C(=O)[C@@](C)(O)C(F)(F)F)CC[C@H]1N(C)C(=O)c1ccc(Cl)cc1` [Compound A22, 4-Chloro-N-methyl-N-[(3S,4R)-3-methyl-1-[(2R)-3,3,3-trifluoro-2-hydroxy-2-methylpropanoyl]piperidin-4-yl]benzamide] it is 5.9 µM.
For `Cc1ccc(C(=O)N(C)[C@@H]2CCN(C(=O)[C@@](C)(O)C(F)(F)F)C[C@@H]2C)cc1` [Compound A25, N,4-Dimethyl-N-[(3S,4R)-3-methyl-1-[(2R)-3,3,3-trifluoro-2-hydroxy-2-methylpropanoyl]piperidin-4-yl]benzamide], the IC50 was 2.7 µM.
Consider `C[C@H]1CN(C(=O)[C@@](C)(O)C(F)(F)F)CC[C@H]1N(C)C(=O)c1ccc(F)cc1` [Compound A30, 4-Fluoro-N-methyl-N-[(3S,4R)-3-methyl-1-[(2R)-3,3,3-trifluoro-2-hydroxy-2-methylpropanoyl]piperidin-4-yl]benzamide], for which the IC50 amounted to 7.9 µM.
In the case of `C[C@H]1CN(C(=O)[C@@](C)(O)C(F)(F)F)CC[C@H]1N(C)C(=O)c1ccccc1` [Compound A33, N-Methyl-N-[(3S,4R)-3-methyl-1-[(2R)-3,3,3-trifluoro-2-hydroxy-2-methylpropanoyl]piperidin-4-yl]benzamide], the IC50 came to 3.4 µM.
`COc1ccc(C(=O)N(C)[C@@H]2CCN(C(=O)[C@@](C)(O)C(F)(F)F)C[C@@H]2C)cc1` [Compound A36, 4-Methoxy-N-methyl-N-[(3S,4R)-3-methyl-1-[(2R)-3,3,3-trifluoro-2-hydroxy-2-methylpropanoyl]piperidin-4-yl]benzamide]: the IC50 stood at 1.3 µM.
Turning to `C[C@H]1CN(C(=O)[C@@](C)(O)C(F)(F)F)CC[C@H]1N(C)C(=O)c1ccc(F)cc1F` [Compound A39, 2,4-Difluoro-N-methyl-N-[(3S,4R)-3-methyl-1-[(2R)-3,3,3-trifluoro-2-hydroxy-2-methylpropanoyl]piperidin-4-yl]benzamide], the IC50 stood at 4.9 µM.
`C[C@H]1CN(C(=O)[C@@](C)(O)C(F)(F)F)CC[C@H]1N(C)C(=O)c1ncc(F)cc1F` [Compound A42, 3,5-Difluoro-N-methyl-N-[(3S,4R)-3-methyl-1-[(2R)-3,3,3-trifluoro-2-hydroxy-2-methylpropanoyl]piperidin-4-yl]pyridine-2-carboxamide]: the half-inhibitory concentration (IC50) turned out to be 2.4 µM.
With `C[C@H]1CN(C(=O)[C@@](C)(O)C(F)(F)F)CC[C@H]1N(C)C(=O)c1ccc(C#N)cc1` [Compound A45, 4-Cyano-N-methyl-N-[(3S,4R)-3-methyl-1-[(2R)-3,3,3-trifluoro-2-hydroxy-2-methylpropanoyl]piperidin-4-yl]benzamide] the figure was 27 µM; with `C[C@H]1CN(C(=O)[C@@](C)(O)C(F)(F)F)CC[C@H]1N(C)C(=O)c1ccc(C(F)(F)F)cc1F` [Compound A48, 2-Fluoro-N-methyl-N-[(3S,4R)-3-methyl-1-[(2R)-3,3,3-trifluoro-2-hydroxy-2-methylpropanoyl]piperidin-4-yl]-4-(trifluoromethyl)benzamide], 2.4 µM.
